Source: patent US20030165458A1, “Diagnosis, prevention, amelioration and/or treatment of disturbed immune function induced by disturbed lipid metabolism” (priority 2000, published 2003)

Key:
[1] = Standardized oral fat load with and without vitamin A in healthy volunteers; assay type: in vivo, human
Experimental: Experimental procedure: Fasting venous blood was drawn and Sudan Black staining as described in example 2 was carried out (left panel of FIG. 7). In the right panel of FIG. 7, venous blood of the same healthy volunteer was drawn 4 hours after administration of a standardized oral fat load. In the oral RP-fat loading test, cream is used as fat source; this is a 40% (w/v) fat emulsion with a P/S ratio of 0.06, which contains 0.001% (w/v) cholesterol and 2.8% (w/v) carbohydrates. After an overnight fast of 12 h, the subjects ingest the fresh cream, to which 120.000 U of aqueous RP (Retinyl palmitate =vitamin A) had been added 18 h before the test, in a dose of 50 g per m^2 body surface. After the ingestion of the fat load, subjects were only allowed to drink water or tea during the following 24 h. Peripheral blood samples were obtained in sodium EDTA (2 mg/ml) before (T=0), at hourly intervals up to 10 h and at 12 and 24 h after the meal. Tubes were protected against light by aluminum foil and centrifuged immediately for 15 min at 800×g at 4° C. […]
Experimental procedure: Standardized oral fat loading tests (oral RP fat loading test) were performed in volunteers and patients and plasma C3 levels were determined nephelometrically at regular intervals. Complement component 3 was measured by nephelometry (Dade Behring Nephelometry type II). […]

[2] = test system: Complement Lipid Pathway (CliP); test: MBL in-vitro assay: MBL-dependent complement activation in human serum, hemolysis of heterologous chicken erythrocytes; assay type: biochemical; conditions: results summarized in FIG. 9
Experimental: Experimental procedure: Chylomicrons were isolated from human serum by ultra centrifugation and purified by column chromatography. The purified chylomicron fractions were added to MBL-positive serum (from healthy human subjects) and MBL-negative serum (from MBL-deficient human subjects) and purified heterologous chicken erythrocytes were added. Complement activation was allowed to occur at 37° C. for 45 min. after which, the extend of hemolysis was evaluated by spectrophotometrical determination of hemoglobin levels in serum supernatants.
Using the MBL in-vitro assay, we identified, as an example, the components from olive oil and soy oil inducing Complement Lipid Pathway (CliP)-activation.

With `CCCCCCCCCCCCCCCC(=O)OC/C=C(C)/C=C/C=C(C)/C=C/C1=C(C)CCCC1(C)C` [vitamin A, Retinyl palmitate] the “postprandial plasma C3 increase” value ([1]; 20 healthy volunteers, oral fat load with vs without vitamin A, after 2 h (FIG. 11A)) was “significantly higher”, the “plasma triglyceride increase 2 h after acute oral fat load” value ([1]; healthy volunteers, fat load with vs without vitamin A (FIG. 11B)) was “reduction” and the CLiP-induction [2] was “strong CLiP-induction”.
